What is called IC50 is the point on the concentration scale where inhibition reaches its midpoint.

Drawing on patent US10501805B2, “Methods for determining responsiveness to MEK/ERK inhibitors” (CROWN BIOSCIENCE, INC. (TAICANG), priority 2014, dated 2019), this text covers IC50 for two compounds.

Assay in all cases: CellTiter-Glo cell viability, IC50 determination
What all share (format): cell-based
For orientation: ATP-based viability assays read luminescence as a measure of living cells.

For one assay, the system named is HCT-15. The conditions noted are these: Homo sapiens, 72 h; HCT-15 cell line; 3-day CTG assay; read-out: Absolute IC50. How it is done:
(§1) All the cells will be cultured in the media supplemented with 10% FBS except for which are marked specially, in the temperature of 37° C., 5% CO2 and 95% humidity.
(§2) Cell viability is assayed by using CellTiter-Glo® Luminescent Cell Viability Assay Kit (Cat. No.: G7572, Promega. Store at −20° C.). To prepare the CellTiter_Glo Reagent, the CellTiter-Glo Buffer was thawed and equilibrated to room temperature prior to use. For convenience the CellTiter-Glo Buffer may be thawed and stored at room temperature for up to 48 hours prior to use. The lyophilized CellTiter-Glo Substrate is equilibrated to room temperature prior to use. The appropriate volume (100 ml) of CellTiter-Glo Buffer is transferred into the amber bottle containing CellTiter-Glo Substrate to reconstitute the lyophilized enzyme/substrate mixture, which forms the CellTiter-Glo Reagent. In certain cases, the entire liquid volume of the CellTiter-Glo Buffer bottle may be added to the CellTiter-Glo Substrate vial. Mix by gently vortexing, swirling or by inverting the contents to obtain a homogeneous solution. The CellTiter-Glo Substrate should go into solution easily in less than one minute.
(§3) The day before the experiment (Day −1), cells were dissociated during the logarithmic growth period with Cell Disassociation Buffer (Gibco 13151-014) and mixed with appropriate cell media and centrifuge at 1000 rpm for 3 minutes. The cells were re-suspended and counted using Countstar before adjusting cell concentrations to optimized density (i.e. 4.44×10^4 cells/ml) with respective culture medium listed in Table 1 for 3-day CTG assay (The cell density was optimized before actual study; cell density used in the test may vary for different cell lines). 90 μl cell suspensions were added to two 96-well plates (plates A and B) with the final cell density of 4×10^3 cells/well for 3-day CTG assay (the cell density was optimized before actual study; cell density used in the test may vary for different cell lines). The plate A and B group were incubated for overnight in humidified incubator at 37° C. with 5% CO2.
(§4) On Day 0, for plate A group, 10 μl culture medium was added to each well for T0 reading. CellTiter-Glo® Reagent was added at equal volume of cell culture medium present in each well (e.g., add 100 μl of reagent to 100 μl of medium containing cells for a 96-well plate). Contents were mixed for 2 minutes on an orbital shaker to facilitate cell lysis. The plate was allowed to incubate at room temperature for 10 minutes to stabilize luminescent signal. Backseal black sticker was added to the bottom of each plate. Luminescence was recorded using EnVision Multi Label Reader. This formed the basis for T0 value.
(§5) On Day 0, the test articles and positive controls were dissolved at the concentration indicated at Test Article Dilution map. 100× solution in PBS was prepared and then diluted with appropriate culture media (1:10) into 10×working solutions. 10 μl (10×) drug solutions were dispensed in each well (triplicate for each drug concentration) of the plate B group according to plate inoculation map. The test plates were incubated for […] in the humidified incubator at 37° with 5% CO2.
(§6) On Day 3, CellTiter-Glo® Reagent was added at equal volume of cell culture medium present in each well (e.g., add 100 μl of reagent to 100 μl of medium containing cells for a 96-well plate). Contents were mixed for 2 minutes on an orbital shaker to induce cell lysis. The plate was allowed to incubate at room temperature for 10 minutes to stabilize luminescent signal. Backseal black sticker was placed to the bottom of each plate. Luminescence was recorded using EnVision Multi Label Reader.
(§7) In order to calculate IC50s, a dose-response curve was fitted using a nonlinear regression model with a sigmoidal dose response. The formula for calculating surviving rate was shown below; Absolute IC50 is calculated where Y axis set at 50% using GraphPad Prism 5.0. Software. […]

In another assay the test system is NCI-H358. As to conditions: Homo sapiens, 72 h; NCI-H358 cell line; 3-day CTG assay; read-out: Absolute IC50. How it is done:
as §1, §2, §3, §4, §5, §6, §7

The next assay has as its system NCI-H1155. The conditions noted are these: Homo sapiens, 72 h; NCI-H1155 cell line; 3-day CTG assay; read-out: Absolute IC50. As for the experimental part:
as §1, §2, §3, §4, §5, §6, §7

The subject of the next assay is Sk-Hep-1. The conditions noted are these: Homo sapiens, SK-HEP1, 72 h; Sk-Hep-1 cell line; 3-day CTG assay; read-out: Absolute IC50. As for the experimental part:
as §1, §2, §3, §4, §5, §6, §7

The test system of a further assay is SW480. As to conditions: Homo sapiens, 72 h; SW480 cell line; 3-day CTG assay; read-out: Absolute IC50. How it is done: as §1, §2, §3, §4, §5, §6, §7
For a further assay, the system named is NCI-H441. The conditions noted are these: Homo sapiens, 72 h; NCI-H441 cell line; 3-day CTG assay; read-out: Absolute IC50. How it is done:
as §1, §2, §3, §4, §5, §6, §7

For the next assay, the system named is NCI-H1299. The conditions noted are these: Homo sapiens, 72 h; NCI-H1299 cell line; 3-day CTG assay; read-out: Absolute IC50. How it is done:
as §1, §2, §3, §4, §5, §6, §7

A further assay deals with KYSE150. The conditions noted are these: Homo sapiens, KYSE-150, 72 h; KYSE150 cell line; 3-day CTG assay; read-out: Absolute IC50. As for the experimental part:
as §1, §2, §3, §4, §5, §6, §7

Another assay deals with Hep3B. As to conditions: Homo sapiens, 72 h; Hep3B cell line; 3-day CTG assay; read-out: Absolute IC50. As for the experimental part:
as §1, §2, §3, §4, §5, §6, §7

A further assay has as its system A2058. As to conditions: Homo sapiens, 72 h; A2058 cell line; 3-day CTG assay; read-out: Absolute IC50. As for the experimental part: as §1, §2, §3, §4, §5, §6, §7
The subject of another assay is Hela. The conditions noted are these: Homo sapiens, 72 h; Hela cell line; 3-day CTG assay; read-out: Absolute IC50. How it is done:
as §1, §2, §3, §4, §5, §6, §7

The subject of a further assay is NCI-H460. As to conditions: Homo sapiens, 72 h; NCI-H460 cell line; 3-day CTG assay; read-out: Absolute IC50. As for the experimental part:
as §1, §2, §3, §4, §5, §6, §7

The next assay relates to NCI-H2227. The conditions noted are these: 72 h; NCI-H2227 cell line; 3-day CTG assay; read-out: Absolute IC50. As for the experimental part: as §1, §2, §3, §4, §5, §6, §7
The subject of the next assay is SK-LU-1. The conditions noted are these: Homo sapiens, 72 h; SK-LU-1 cell line; 3-day CTG assay; read-out: Absolute IC50. How it is done: as §1, §2, §3, §4, §5, §6, §7
Another assay concerns HT1376. The conditions noted are these: Homo sapiens, HT-1376, 72 h; HT1376 cell line; 3-day CTG assay; read-out: Absolute IC50. As for the experimental part:
as §1, §2, §3, §4, §5, §6, §7

The test system of another assay is NCI-H1651. The conditions noted are these: Homo sapiens, 72 h; NCI-H1651 cell line; 3-day CTG assay; read-out: Absolute IC50. As for the experimental part:
as §1, §2, §3, §4, §5, §6, §7

As to `CC(=O)Nc1cccc(-n2c(=O)n(C3CC3)c(=O)c3c(Nc4ccc(I)cc4F)n(C)c(=O)c(C)c32)c1` [Trametinib, N-(3-{3-Cyclopropyl-5-[(2-fluoro-4-iodophenyl)amino]-6,8-dimethyl-2,4,7-trioxo-3,4,6,7-tetrahydropyrido[4,3-d]pyrimidin-1(2H)-yl}phenyl)acetamide], the IC50 in the assay on HCT-15 came to 29.3 µM; in the assay on NCI-H358 it was 0.05 µM; with NCI-H1155 it was 636 µM; with Sk-Hep-1, 29.1 µM; in the assay with SW480, 6.65 µM; in the assay on NCI-H441, 325 µM. Also, the IC50 in the assay on NCI-H1299 is 0.91 µM; in the assay with KYSE150, 5.28 µM; with Hep3B, 0.05 µM; in the assay on A2058, 0.12 µM.
As for `O=C(Nc1ccc2[nH]nc(-c3ccncc3)c2c1)[C@@H]1CCN(CC(=O)N2CCN(c3ccc(-c4ncccn4)cc3)CC2)C1` [SCH772984, (R)-1-(2-oxo-2-(4-(4-(pyrimidin-2-yl)phenyl)piperazin-1-yl)ethyl)-N-(3-(pyridin-4-yl)-1H-indazol-5-yl)pyrrolidine-3-carboxamide], the IC50 in the assay with Hela was 5.38 µM; with NCI-H460 it was 5.53 µM; in the assay on HCT-15, 15.6 µM; with NCI-H358, 0.52 µM; in the assay on Sk-Hep-1 it was 5.29 µM; in the assay on NCI-H2227, 28.7 µM. Also, the IC50 amounted to 4.69 µM in the assay with SK-LU-1; 1.72 µM in the assay on KYSE150; 0.25 µM in the assay with Hep3B; 4.27 µM in the assay with HT1376; 48.8 µM in the assay on NCI-H1651.
